How the values were obtained:
[1] = target: 3',5'-cyclic-AMP phosphodiesterase 4B (Homo sapiens, UniProt Q07343); assay: Inhibition of human U937 cells-derived PDE4B using [3H]-cAMP as substrate after 30 mins
[2] = target: 3',5'-cyclic-AMP phosphodiesterase 4D (Homo sapiens, UniProt Q08499); assay: Inhibition of human U937 cells-derived PDE4D using [3H]-cAMP as substrate after 30 mins
Homo sapiens = organism: Homo sapiens; assay: Selectivity index, ratio of IC50 for human U937 cells-derived PDE4D to IC50 for human U937 cells-derived PDE4B
[3] = Inhibition of PDE4 in human PBMC assessed as reduction in LPS-stimulated TNFalpha release preincubated for 30 mins followed by LPS stimulation for 18 hrs by TR-FRET assay; type: cell-based
Mus musculus = assay: Anti-inflammatory activity in Swiss albino mouse model of sepsis assessed as inhibition of LPS-induced TNFalpha release at 10 mg/kg, po administered 30 mins prior to LPS challenge for 90 mins by ELISA relative to control; type: functional
Rattus norvegicus = assay: Anti-inflammatory activity in Sprague-Dawley rat model of LPS-induced asthma/COPD assessed as inhibition of neutrophilia in BALF at 10 mg/kg, po administered 30 mins prior to LPS challenge for 40 mins and measured after 6 hrs relative to control; type: functional

3',5'-cyclic-AMP phosphodiesterase 4B, sequence (Q07343 whole entry): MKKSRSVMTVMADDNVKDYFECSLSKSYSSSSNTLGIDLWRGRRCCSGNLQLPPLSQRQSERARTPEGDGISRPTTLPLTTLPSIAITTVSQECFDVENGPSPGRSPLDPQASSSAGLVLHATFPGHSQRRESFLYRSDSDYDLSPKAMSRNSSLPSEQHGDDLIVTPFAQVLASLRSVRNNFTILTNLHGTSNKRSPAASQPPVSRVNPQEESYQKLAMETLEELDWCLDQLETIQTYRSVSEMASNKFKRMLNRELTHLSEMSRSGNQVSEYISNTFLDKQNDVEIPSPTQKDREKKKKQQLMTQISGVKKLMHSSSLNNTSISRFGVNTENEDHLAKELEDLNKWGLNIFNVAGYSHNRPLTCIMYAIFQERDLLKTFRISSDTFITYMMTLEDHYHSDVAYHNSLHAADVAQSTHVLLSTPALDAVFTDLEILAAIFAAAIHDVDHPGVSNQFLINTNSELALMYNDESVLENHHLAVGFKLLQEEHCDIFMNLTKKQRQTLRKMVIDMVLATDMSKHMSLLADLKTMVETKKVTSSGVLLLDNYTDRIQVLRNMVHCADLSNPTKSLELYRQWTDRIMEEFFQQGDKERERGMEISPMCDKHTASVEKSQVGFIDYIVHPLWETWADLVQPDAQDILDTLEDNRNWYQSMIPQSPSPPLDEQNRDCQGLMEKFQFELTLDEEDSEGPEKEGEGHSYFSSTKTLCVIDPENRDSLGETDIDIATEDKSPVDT
3',5'-cyclic-AMP phosphodiesterase 4D, sequence (Q08499 whole entry): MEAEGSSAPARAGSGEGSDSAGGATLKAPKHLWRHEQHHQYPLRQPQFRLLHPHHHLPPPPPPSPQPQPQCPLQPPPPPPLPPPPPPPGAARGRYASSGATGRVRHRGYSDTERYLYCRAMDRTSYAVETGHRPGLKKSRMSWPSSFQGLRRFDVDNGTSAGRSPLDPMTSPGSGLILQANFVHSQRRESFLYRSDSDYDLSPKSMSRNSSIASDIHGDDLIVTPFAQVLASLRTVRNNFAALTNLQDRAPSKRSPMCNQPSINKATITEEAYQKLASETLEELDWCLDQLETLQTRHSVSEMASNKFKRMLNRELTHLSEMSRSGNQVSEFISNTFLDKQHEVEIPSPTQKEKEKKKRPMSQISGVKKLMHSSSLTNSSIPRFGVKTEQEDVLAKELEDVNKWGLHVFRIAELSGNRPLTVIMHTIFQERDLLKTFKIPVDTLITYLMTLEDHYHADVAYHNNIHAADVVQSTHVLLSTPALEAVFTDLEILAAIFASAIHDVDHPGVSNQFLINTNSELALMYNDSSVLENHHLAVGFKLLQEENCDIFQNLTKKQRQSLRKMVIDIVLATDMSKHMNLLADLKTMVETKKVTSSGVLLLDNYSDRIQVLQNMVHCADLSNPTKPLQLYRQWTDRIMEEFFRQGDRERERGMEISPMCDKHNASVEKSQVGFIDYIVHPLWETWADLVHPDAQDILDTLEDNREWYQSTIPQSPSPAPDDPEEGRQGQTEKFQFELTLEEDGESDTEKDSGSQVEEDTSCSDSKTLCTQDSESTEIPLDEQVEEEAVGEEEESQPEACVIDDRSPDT

| IC50 [1] | IC50 [2] | Ratio IC50 (Homo sapiens) | IC50 [3] | SMILES | inhibition in vivo at 10 mg/kg (Mus musculus) | inhibition in vivo at 10 mg/kg (Rattus norvegicus) |
| --- | --- | --- | --- | --- | --- | --- |
| 66.3 µM | – | – | 151 µM | O=C(c1ccc(-c2ccccc2[N+](=O)[O-])o1)N1CCc2ccccc2C1 | – | – |
| 58.4 µM | – | – | 156 µM | O=C(c1ccc(-c2ccc(Br)cc2)o1)N1CCc2ccccc2C1 | – | – |
| 15.8 µM | 88.3 µM | 5.39 | 46.3 µM | O=C(c1ccc(-c2ccc([N+](=O)[O-])cc2)o1)N1CCc2ccccc2C1 | – | – |
| 30.9 µM | – | – | 62.3 µM | O=C(c1ccc(-c2cccc([N+](=O)[O-])c2)o1)N1CCCc2ccccc21 | – | – |
| 17.1 µM | 89.2 µM | 4.21 | 91.9 µM | O=C(c1ccc(-c2c(F)cccc2F)o1)N1CCc2ccccc2C1 | – | – |
| 50.3 µM | – | – | 92.8 µM | O=C(c1ccc(-c2ccccc2F)o1)N1CCCc2ccccc21 | – | – |
| 3 µM | 18.1 µM | 6.03 | 17.1 µM | O=C(c1ccc(-c2ccc(F)cc2F)o1)N1CCc2ccccc2C1 | 30.8% | 29.5% |
| – | – | – | 18.9 µM | COc1ccc(C2CNC(=O)C2)cc1OC1CCCC1 (stereo unspecified) [ROLIPRAM] | 42.9% | 34.2% |
| 21.1 µM | – | – | 57.1 µM | O=C(c1ccc(-c2cccc(Cl)c2)o1)N1CCc2ccccc2C1 | – | – |
| 4.1 µM | 25.2 µM | 6.14 | 28.6 µM | O=C(c1ccc(-c2ccc(Cl)cc2)o1)N1CCc2ccccc2C1 | – | – |
| 9.4 µM | 56.8 µM | 6.04 | 44.1 µM | Cc1ccc(-c2ccc(C(=O)N3CCc4ccccc4C3)o2)cc1 | – | – |
| 22.2 µM | – | – | 64.3 µM | O=C(c1ccc(-c2cccc(F)c2)o1)N1CCCc2ccccc21 | – | – |
| 12.1 µM | 77.2 µM | 6.38 | 46.8 µM | O=C(c1ccc(-c2ccc([N+](=O)[O-])cc2)o1)N1CCCc2ccccc21 | – | – |

The next lines start with the compound.

| SMILES | IC50 [1] | IC50 [2] | Ratio IC50 (Homo sapiens) | IC50 [3] | inhibition in vivo at 10 mg/kg (Mus musculus) | inhibition in vivo at 10 mg/kg (Rattus norvegicus) |
| --- | --- | --- | --- | --- | --- | --- |
| O=C(c1ccc(-c2ccc(F)cc2)o1)N1CCCc2ccccc21 | 6.1 µM | 40.3 µM | 6.6 | 22.1 µM | – | – |
| O=C(c1ccc(-c2ccc(F)cc2F)o1)N1CCCc2ccccc21 | 2.6 µM | 15.6 µM | 6 | 16.2 µM | 39.6% | 34.1% |
| COc1ccc(-c2ccc(C(=O)N3CCc4ccccc4C3)o2)cc1 | 2.6 µM | 10.2 µM | 3.92 | 13.6 µM | 39.2% | 32.7% |
| O=C(c1ccc(-c2c(F)cccc2F)o1)N1CCCc2ccccc21 | 15.2 µM | 81.3 µM | 5.34 | 89.3 µM | – | – |
| Cc1ccc(-c2ccc(C(=O)N3CCCc4ccccc43)o2)cc1 | 9.4 µM | 50.1 µM | 5.33 | 35.2 µM | – | – |
| COc1ccc(-c2ccc(C(=O)N3CCCc4ccccc43)o2)cc1 | 1.5 µM | 10.3 µM | 6.86 | 11.8 µM | 46.8% | 40.1% |
| O=C(c1ccc(-c2cccc(F)c2)o1)N1CCc2ccccc2C1 | 25.7 µM | – | – | 78.1 µM | – | – |
| O=C(c1ccc(-c2ccccc2)o1)N1CCCc2ccccc21 | 70.9 µM | – | – | 142 µM | – | – |
| O=C(c1ccc(-c2ccccc2Cl)o1)N1CCc2ccccc2C1 | 51.6 µM | – | – | 121 µM | – | – |
| O=C(c1ccc(-c2cccc([N+](=O)[O-])c2)o1)N1CCc2ccccc2C1 | 39.9 µM | – | – | 72.5 µM | – | – |
| O=C(c1ccc(-c2ccccc2Cl)o1)N1CCCc2ccccc21 | 41.6 µM | – | – | 101 µM | – | – |
| O=C(c1ccc(-c2ccccc2[N+](=O)[O-])o1)N1CCCc2ccccc21 | 66.9 µM | – | – | 128 µM | – | – |
| O=C(c1ccc(-c2ccccc2F)o1)N1CCc2ccccc2C1 | 46.1 µM | – | – | 95.4 µM | – | – |
| O=C(c1ccc(-c2ccc(F)cc2)o1)N1CCc2ccccc2C1 | 7.4 µM | 49.3 µM | 6.66 | 27.2 µM | – | – |
| O=C(c1ccc(-c2ccc(Cl)cc2)o1)N1CCCc2ccccc21 | 3.5 µM | 21.3 µM | 6.09 | 27.2 µM | – | – |
| O=C(c1ccc(-c2ccccc2)o1)N1CCc2ccccc2C1 | 79.6 µM | – | – | 188 µM | – | – |
| O=C(c1ccc(-c2ccc(Br)cc2)o1)N1CCCc2ccccc21 | 46.8 µM | – | – | 131 µM | – | – |
| O=C(c1ccc(-c2cccc(Cl)c2)o1)N1CCCc2ccccc21 | 18.9 µM | 96.8 µM | 5.12 | 62.5 µM | – | – |

— ChEMBL document CHEMBL4265882, “Tetrahydroquinoline and tetrahydroisoquinoline derivatives as potential selective PDE4B inhibitors” (Bioorg Med Chem Lett, 2018)
